Data reported in patent US5859030A, “Substituted arylalkylthioalkylthiopyridines for use in the control of helicobacter bacteria” (BYK Gulden Lomberg Chemische Fabrik GmbH, priority 1994, dated 1999).
Values after ≈ are worked out from the molar mass of the structure shown. Structures can show the parent of a compound that is named as a salt.

Tested on: Helicobacter pylori
Test: Activity against Helicobacter pylori (agar growth inhibition, methodology of Iwahi et al.)
Assay type: cell-based
Details: 96 h, Columbia agar (Oxoid), growth period of 4 days, read-out: approx. MIC50
Text: The compounds of the formula I were investigated regarding their activity against Helicobacter pylori following the methodology described by Tomoyuki Iwahi et al. (Antimicrobial Agents and Chemotherapy, 1991, 490-496) using Columbia agar (Oxoid) and with a growth period of 4 days. The approx. MIC 50 values listed in the following Table A resulted here for the compounds investigated (the numbers of the compounds given agree with the example numbers in the description).

Row | SMILES | MIC50
1 | Cc1c(SCCOc2ccccc2)ccnc1CSc1nc2ccccc2[nH]1 [Compound 1] | ~0.05 µg/mL (≈ 0.123 µM)
2 | Cc1c(SCCCSc2nc3ccccc3o2)ccnc1CSc1nc2ccccc2[nH]1 [Compound 11, 2-{[[4-[(5-Benzoxazol-2-yl)-1,5-dithiapent-1-yl]-3-methyl-2-pyridinyl]methyl]thio}1 H-benzimidazole] | ~0.1 µg/mL (≈ 0.209 µM)
3 | Cc1c(SCCCCOc2ccccc2)ccnc1CSc1nc2ccccc2[nH]1 [Compound 2] | ~0.1 µg/mL (≈ 0.23 µM)
4 | Cc1c(SCCCSCc2ccc(CN(C)C)o2)ccnc1CSc1nc2ccccc2[nH]1 [Compound 6, trihydrochloride] | ~0.05 µg/mL
5 | Cc1scnc1CCSCCCSc1ccnc(CSc2nc3ccccc3[nH]2)c1C.Cl.Cl.Cl [Compound 7, 2-{[[3-Methyl-4-[7-(5-methylthiazol-4-yl)-1,5 dithiahept-1-yl]-2-pyridinyl]methyl]thio}-1 H-benzimidazole trihydrochloride] | ~0.05 µg/mL
6 | Cc1c(SCCCSC(=S)N(C)C)ccnc1CSc1nc2ccccc2[nH]1 [Compound 4, 2-{[[4-[3-Dimethvldithiocarbamoylpropylthio]-3-methyl-2-pyridinyl]methyl]thio}1 H-benzimidazole] | ~0.05 µg/mL (≈ 0.111 µM)
7 | Cc1ccc(CSCCSc2ccnc(CSc3nc4ccccc4[nH]3)c2C)cc1 [Compound 3, 2-{[[3-Methyl-4-[5-(4-methylphenyl)-1,4-dithia-pent-1-yl]-2-pvridinyl]methyl]thio}-1 H-benzimidazole] | ~0.05 µg/mL (≈ 0.111 µM)
8 | Cc1c(SCCCSc2ccncc2)ccnc1CSc1nc2cccnc2[nH]1 [Compound 14] | ~0.1 µg/mL (≈ 0.227 µM)
9 | Cc1c(SCCCSCc2ccco2)ccnc1CSc1nc2ccccc2[nH]1 [Compound 5, 2-{[[4-[(6-Furan-2-yl)-1,5-dithiahex-1-yl]-3-methyl-2-pyridinyl]methyl]thio}-1 H-benzimidazole] | ~0.05 µg/mL (≈ 0.113 µM)
10 | Cc1c(SCCCSc2nc3ccccc3s2)ccnc1CSc1nc2ccccc2[nH]1 [Compound 10, 2-{[[4-[(5-Benzothiazol-2-yl)-1,5-dithiapent-1-yl]-3-methyl-2-pyridinyl]methyl]thio}-1 H-benzimidazole] | ~0.1 µg/mL (≈ 0.202 µM)
